Square brackets hold non-standard residues; d marks the D form. Ends that are not written are not given here. Peptide text beside a SMILES is read from it. AEEA = NCCOCCOCC(=O)O
Experiments:
[1] = tested on: Pseudomonas aeruginosa ATCC® 27853™; type: cell-based
Procedure: The three peptide compounds BCC01-5RMP (SEQ ID NO:21), BCC02-5RMP (SEQ ID NO:22), and BCC03-5RMP (SEQ ID NO:23) were assayed for in vitro bactericidal activity against Pseudomonas aeruginosa, Escherichia coli, Salmonella typhimurium, and Acinetobacter baumannii. […] The CFU remaining at the end of 60 to 180 minute incubation was determined, and the data plotted as a log reduction in CFU/ml.
Tables 4-6 show the results of various peptides and peptide compounds against P. aeruginosa and E. coli strains. Tables 4 and 5 show the results of an investigation of the effects of peptide or peptide compounds BCC03-5RMP (SEQ ID NO:23), BCC03-MP (SEQ ID NO:24) and BCC03-5R (SEQ ID NO:20) against P. aeruginosa ATCC® strain 27853™ and E. coli ATCC® strain 25922™ (American Type Culture Collection, Manassas, Va.). […] Table 6 compares the activity of several other compounds, including the “5R” versions of BCC01, i.e., SEQ ID NO:18 (which comprises SEQ ID NO:1 with five additional arginines), the “5R” version of BCC02 (i.e., SEQ ID NO:19, which comprises SEQ ID NO:2 with five additional arginines), and BCC03-5RMP (SEQ ID NO:23), and BCC03-MP (SEQ ID NO:24, i.e., without the five additional R residues). The data generally indicate the superiority of BCC03-5RMP (SEQ ID NO:23) against E. coli, and the superiority of the 5R or 5RMP versions of the peptide over the “AEEA only” peptide against P. aeruginosa.
(§1) For FIGS. 10-13, in vitro bactericidal assays were performed using a starting inoculum of 1×10^6 CFU/ml of the bacterial suspension. The CFU remaining at the end of the 60-180 minute incubation was determined, and the data was plotted as log reduction in CFU/ml.
(§2) In particular, each of the test peptides (CAP37 peptides 120-146WR, 120-146WH, and 95-122 (SEQ ID NOs: 30, 31, and 26, respectively)) was used at 25, 12.5, 6.25, and 3.12 μM. Gentamicin was used at 4 μg/ml. 1×10^6/ml Acinetobacter baumannii ATCC® BAA-747″ or Pseudomonas aeruginosa ATCC® 27853™ (American Type Culture Collection, Manassas, Va.) were incubated with the peptides, negative buffer control (tryptone saline), and positive control gentamicin at pH 5.5 or 7.2. A 60 minute incubation was used for Acinetobacter baumannii ATCC® BAA747™, while a 180 minute incubation was used for Pseudomonas aeruginosa ATCC® 27853™. 50 μl aliquots were plated out on agar plates and incubated overnight. Colony forming units were counted after overnight incubation and CFU/ml calculated.
For FIG. 14, 1×10^6/ml Pseudomonas aeruginosa ATCC® 27853™ were incubated with each of the test peptides (CAP37 peptides 120-146WR, 120-146WH, 120-146QR, 120-146QH, 120-146QR-5RMP, and 120-146QH-5RMP (SEQ ID NOs: 30, 31, 28, 29, 32, and 33, respectively)) at 150, 75, and 37.5 μg/ml, or negative buffer control (tryptone saline), for 180 minutes at pH 5.5. 50 μl aliquots were plated out on agar plates and incubated overnight. Colony forming units were counted after overnight incubation and CFU/ml calculated.

[2] = tested on: Acinetobacter baumannii ATCC® BAA-747™; experiment: In vitro bactericidal assay (CFU remaining, log reduction); type: cell-based; details: for reduction of CFU/ml: 60 minutes, highest peptide concentrations (25 μM)
Procedure: The three peptide compounds BCC01-5RMP (SEQ ID NO:21), BCC02-5RMP (SEQ ID NO:22), and BCC03-5RMP (SEQ ID NO:23) were assayed for in vitro bactericidal activity against Pseudomonas aeruginosa, Escherichia coli, Salmonella typhimurium, and Acinetobacter baumannii. The starting inoculum for all experiments was 1×10^6 colony forming units (CFU)/ml. The CFU remaining at the end of 60 to 180 minute incubation was determined, and the data plotted as a log reduction in CFU/ml.
as §1, §2

[3] = tested on: P. aeruginosa (ATCC® 27853™); experiment: Pseudomonas keratitis model in the mouse eye; type: in vivo
Procedure: A circular wound was created on the mouse cornea by removing the epithelium and infected with 10^5 colony forming units (CFU) of P. aeruginosa (ATCC® 27853™ (American Type Culture Collection, Manassas, Va.)). Infected wounds were treated with saline (0.9% sodium chloride, vehicle control) or saline containing indicated concentrations of peptide every 15 minutes for 2 hours, then every 30 minutes for 3 hours on the first day. Infected wounds were treated twice on the second day and once on the third day. Mice were killed at 48 hours post-infection, and CFU/eye were quantified. The means were plotted and are representative of 5 to 9 mice per group. Mann Whitney test was performed for each group as compared to the saline control group. *P=0.014.
A circular wound (2 mm) was created on the mouse cornea by removing the epithelium and infecting the wound with 10^5 CFU of P. aeruginosa (ATCC® 27853™ (American Type Culture Collection, Manassas, Va.)). Infected wounds were treated with saline or saline containing indicated concentrations of peptide every 15 minutes for 2 hours, then every 30 minutes for 3 hours on the first day. Infected wounds were treated twice on the second day and once on the third day. Mice were killed at 48 hours post-infection, and the colony forming units per eye (CFU/eye) were quantified. The means are plotted and are representative of 5 to 9 mice per group. Mann Whitney test was performed for each group as compared to the saline control group.
For FIGS. 15-17, in vivo bactericidal activity of the peptides was also investigated using the standard Pseudomonas keratitis model in the mouse eye (FIGS. 15-17). Peptides 120-146QR-5RMP (SEQ ID NO:32), 120-146WH (SEQ ID NO:31), and 120-146WR (SEQ ID NO: 30) were applied topically at doses of 2, 5, 10, and 20 mg/ml to the wounded cornea that had been infected with 10^5 CFU of Pseudomonas aeruginosa. The efficacies of the peptides were compared to treatment with the vehicle control. Mice were euthanized at 48 hours post infection, and the CFU/eye were quantified.

Compound | activity against P. aeruginosa ([1]; 120-146WR at 25 μM, gentamicin 4 μg/ml) | reduction of CFU (FIG. 14) ([1]; pH 5.5, 180 minutes, highest concentrations (150 μg/ml)) [logs] | reduction of CFU/ml ([1]; pH 7.2, 180 minutes, highest concentrations of peptides (25 μM)) [logs] | bactericidal activity against Pseudomonas aeruginosa ([1]; pH 7.2, 180 minutes, peptides at 25 μM) | activity against A. baumannii ([2]; 12.5 μM) | activity against A. baumannii ([2]; 25 μM) | reduction of CFU/ml ([2]; pH 5.5) [logs] | reduction of CFU/ml ([2]; pH 7.2) [logs] | infection (CFU/eye) at 48 hours post infection vs saline ([3]; topical, 5, 10, and 20 mg/ml) | reduction in CFU (FIG. 14) ([1]; pH 5.5, 180 minutes, 75 μg/ml) [log] | mice with no viable bacteria in the eye after treatment ([3]; 10 and 20 mg/ml groups together) | CFU/eye at 48 hours post infection vs saline ([3]; topical, doses of 10 and 20 mg/ml)
GTRCQVAGWGSWRSGGRLSRFPRFVNV [Peptide 120-146WR] | highly active | 6 | 6 | as effective as the standard antibiotic gentamicin | highly active | highly active | ~4 | ~5.5 | significantly reduced infection | – | – | –
CC(C)C[C@H](NC(=O)[C@H](CCCNC(=N)N)NC(=O)CNC(=O)CNC(=O)[C@H](CO)NC(=O)[C@H](CCCNC(=N)N)NC(=O)[C@H](CCC(N)=O)NC(=O)[C@H](CO)NC(=O)CNC(=O)[C@H](Cc1c[nH]c2ccccc12)NC(=O)CNC(=O)[C@H](C)NC(=O)[C@@H](NC(=O)[C@H](CCC(N)=O)NC(=O)[C@H](CS)NC(=O)[C@H](CCCNC(=N)N)NC(=O)[C@@H](NC(=O)CNC(=O)[C@H](CCCNC(=N)N)NC(=O)[C@H](CCCNC(=N)N)NC(=O)[C@H](CCCNC(=N)N)NC(=O)[C@H](CCCNC(=N)N)NC(=O)COCCOCCNC(=O)COCCOCCN)[C@@H](C)O)C(C)C)C(=O)N[C@@H](CO)C(=O)N[C@@H](CCCNC(=N)N)C(=O)N[C@@H](Cc1ccccc1)C(=O)N1CCC[C@H]1C(=O)N[C@@H](CCCNC(=N)N)C(=O)N[C@@H](Cc1ccccc1)C(=O)N[C@H](C(=O)N[C@@H](CC(N)=O)C(=O)N[C@H](C(=O)N[C@@H](CCCNC(=N)N)C(=O)O)C(C)C)C(C)C [120-146QR-5RMP] (H-[AEEA][AEEA]RRRRGTRCQVAGWGSQRSGGRLSRFPRFVNVR-OH) | – | – | – | – | – | – | – | – | – | ~6 | Six of the 10 | significantly reduced the CFU/eye

Source: US9603896B2, “Peptide compounds and methods of production and use thereof” (priority 2012, dated 2017)
